US20230346769A1, “USE OF SIMPLE ACYCLIC POLYAMINES FOR THE TREATMENT OF DISEASES CAUSED BY PARASITES OF THE GENUS LEISHMANIA” (Universidad De Granada, priority 2020, published 2023)
“Also recorded” adds a separate entry of the source.

Legend:
[1] = test system: intracellular forms of L.braziliensis in J774.2 macrophages; assay: Infection rate and parasite growth in infected macrophage cultures; type: cell-based, Leishmania braziliensis; conditions: compound at IC25, 10 days
Experimental: Methodology: Macrophages of the J774.2 line preserved in the laboratory of the present inventors by cryopreservation at -80° C. and successive runs in MEM+Glutamine + 20% SBFI medium were used, which were deposited in a […] tube and centrifuged at 100 g for 5 minutes. The supernatant was discarded and the cells were resuspended in medium corresponding to a final concentration of 1×10^6 cells/ml. Subsequently, 10 μl of the cell suspension was deposited into each well of a 24-well culture plate each with a 10 mm diameter round slide. A final volume of 500 μl was completed with the culture medium and incubated for 24 h at 37° C. in humid atmosphere with 5% CO2. […] The non-phagocytic parasites and products were removed by washing and the infected cultures were maintained for 10 days in fresh medium added every 48 hours. The activity of the compounds was determined by the percentage of infected cells and the number of amastigotes per infected cell. Finally, the cultures were fixed and stained with methanol and Giemsa.

L.donovani promastigotes = assay: Alteration of production and excretion of metabolites (1H NMR); type: cell-based, Leishmania donovani; conditions: compound at IC25, 72 h
Experimental: (§1) Methodology: Promastigotes from the three species studied were used for this study. They were left to grow in a culture flask and subsequently transferred to a 25 ml capacity conical bottom flask (steriling) so that there were 5×10^4 parasites/ml in each one. The amount of compound needed to reach IC25 of each product was added and completed with fresh culture medium to reach a final volume of 3 ml and incubated at 28° C. for 72 h. After that time, the flasks were centrifuged at 400 g for 10 minutes, and 2 ml of supernatant was transferred to Eppendorf® tubes. Next, they were analysed using proton nuclear resonance and the spectra were analysed with the Mestre Nova® software to obtain the metabolite production and excretion graphs. From these graphs, it can be inferred which enzyme has seen its activity altered by action of the compounds, depending on the increase or decrease of the metabolite produced by it.
(§2) Both the decrease and increase in the metabolites analysed can be positive effects, indicating a malfunctioning of the metabolic pathway.

Leishmania donovani = assay: Mitochondrial membrane potential by rhodamine staining and flow cytometry; type: cell-based; conditions: L.donovani, compound at IC25, 72 h
Experimental: Methodology: Similar to the assay of Example 5, an amount of 5×10^4 parasites/ml of Leishmania donovani was re-treated with the IC25 of compounds 2 and 4, this time in a final volume in the 5 ml steriling conical bottom flasks. Again, after 72 h of incubation under the same conditions as described in Example 5, the flasks were centrifuged at 400 g for 10 minutes and the pellet was washed by resuspending with PBS three times. The pellet was resuspended with 0.5 mL of PBS with 10 µg/mL rhodamine after the last wash. A cytometry analysis was performed after 20 minutes of action of the rhodamine.

[2] = biological target: T1, CuZnSOD of human erythrocytes (Homo sapiens, UniProt P00441); assay: In vitro inhibition of CuZnSOD (NBT reduction); type: biochemical
T1 construct: the Cu/Zn-superoxide dismutase of human red blood cells from Boehringer Mannheim was used; purchased Boehringer Mannheim; host or cells: human red blood cells (erythrocytes)
From the text: To conduct this assay, the Cu/Zn-superoxide dismutase of human red blood cells from Boehringer Mannheim was used, whilst the coenzymes and substrates were obtained from Sigma-Aldrich.
Inhibition caused by the novel compounds on FeSOD/ Cu-Zn SOD activity was quantified on the spectrophotometer at 560 nm according to the technique described by [W F. Beyer. I. Fridovich. Anal Biochem. 1987. 161: 559-66] based on the determination of the reduction of NBT (nitro blue tetrazolium) by superoxide ions and which the group of the present inventors has developed for the assay in trypanosomatides, being a routine technique in the laboratory of said group [F. Luque. et. al. Comp. Biochem. Physiol. C Toxicol. Pharmacol. 2000. […]
Briefly, the cultured parasites as described in Example 1 underwent centrifugation, the pellet was resuspended (0.5 - 0.6 g/ml) in 3 ml of STE buffer (0.25 M. Tris-HCI 25 mM sucrose. 1 M EDTA. pH 7.8) and underwent 3 cycles of sonication from 30 s at 60 V. Then, it was centrifuged at 1500 g for 10 min at 4° C. and the pellet was washed 3 times with ice-cooled STE buffer. […] Protein concentrations were determined by means of the Bradford method (Sigma-Aldrich) using bovine serum albumin as standard. […] A first measurement of the absorbance at 560 nm was made on a spectrophotometer and, after 10 minutes under light and under stirring conditions, the absorbance was re-determined. […]

L.infantum promastigotes = assay: Alteration of production and excretion of metabolites (1H NMR); type: cell-based, Leishmania infantum; conditions: compound at IC25, 72 h, versus control
Experimental: as §1, §2

T1 sequence (P00441 whole entry): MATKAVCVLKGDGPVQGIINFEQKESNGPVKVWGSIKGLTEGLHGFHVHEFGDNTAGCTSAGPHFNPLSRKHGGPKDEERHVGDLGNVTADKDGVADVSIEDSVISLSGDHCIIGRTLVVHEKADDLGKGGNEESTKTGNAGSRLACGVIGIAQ

SMILES	Number of amastigotes per infected cell [1]	Percentage of infection (infection rate) [1]	Production and excretion of metabolites (metabolism, other metabolites analysed) (L.donovani promastigotes)	Succinate production (L.donovani promastigotes; versus control)	Effect on mitochondrial membrane potential (Leishmania donovani)	Concentration for 50% inhibition (IC50) of CuZnSOD of human erythrocytes [2]	Succinate production (L.infantum promastigotes)
CNCCNCc1cccnc1 [Compound 2, 1-{3-pyridyl)-2,5-diazahexane]	lowest values over time; also recorded: effective by decreasing	lowest values over time; also recorded: effective by decreasing	all the metabolites analysed increase	increase in succinate production	only a slight depolarisation	–	–
CN(C)CCNCc1ccccn1 [Compound 4, 1-(2-pyridyl)-5-methyl-2,5-diazahexane]	effective by decreasing	effective by decreasing	–	–	only a slight depolarisation	high IC50 value	increase in succinate production
